Holding throughout (experiment): greenhouse pre-emergence herbicidal test
Format in all cases: in vivo
Common to all, as to settings: 250 g/ha, scale 0 to 100

One assay deals with Alopercurus myosuroides. From the text:
(§1) The culture containers used were plastic flowerpots containing loamy sand with approximately 3.0% of humus as the substrate. The seeds of the test plants were sown separately for each species.
(§2) For the pre-emergence treatment, the active ingredients, which had been suspended or emulsified in water, were applied directly after sowing by means of finely distributing nozzles. The containers were irrigated gently to promote germination and growth and subsequently covered with transparent plastic hoods until the plants had rooted. This cover caused uniform germination of the test plants, unless this had been impaired by the active ingredients.
(§3) Depending on the species, the plants were kept at 10-25° C. or 20-35° C., respectively.
(§4) The test period extended over 2 to 4 weeks. During this time, the plants were tended, and their response to the individual treatments was evaluated.
(§5) Evaluation was carried out using a scale from 0 to 100. 100 means no emergence of the plants, or complete destruction of at least the aerial moieties, and 0 means no damage, or normal course of growth. A moderate herbicidal activity is given at values of at least 60, a good herbicidal activity is given at values of at least 70, and a very good herbicidal activity is given at values of at least 85.

A further assay relates to Amaranthus retroflexus.
Excerpt: as §1, §2, §3, §4, §5

The next assay concerns Echinocloa crus-galli.
Excerpt: as §1, §2, §3, §4, §5

In a further assay the test system is Setaria faberi. An excerpt: (§6) The culture containers used were plastic flowerpots containing loamy sand with approximately 3.0% of humus as the substrate. The seeds of the test plants were sown separately for each species. For the pre-emergence treatment, the active ingredients, which had been suspended or emulsified in water, were applied directly after sowing by means of finely distributing nozzles. The containers were irrigated gently to promote germination and growth and subsequently covered with transparent plastic hoods until the plants had rooted. This cover caused uniform germination of the test plants, unless this had been impaired by the active ingredients. […] The test period extended over 2 to 4 weeks. During this time, the plants were tended, and their response to the individual treatments was evaluated. Evaluation was carried out using a scale from 0 to 100. 100 means no emergence of the plants, or complete destruction of at least the aerial moieties, and 0 means no damage, or normal course of growth.

The next assay deals with Abutilon theophrasti.
Excerpt: as §6

Take `Nc1nc(Nc2c(F)cccc2OCc2cccc(F)c2)nc(C2(F)CCCC2)n1` [Example 18]: the herbicidal activity in the assay with Alopercurus myosuroides was 70%; in the assay on Amaranthus retroflexus it was 70%; in the assay with Echinocloa crus-galli, 70%; with Setaria faberi it was 85%.
Take `CC(C)(F)c1nc(N)nc(Nc2c(F)cccc2OCc2cnc(Cl)s2)n1` [Example 39]: the herbicidal activity came out at 90% in the assay on Alopercurus myosuroides, 80% with Amaranthus retroflexus, 100% in the assay with Echinocloa crus-galli and 90% with Setaria faberi.
Turning to `Nc1nc(Nc2c(F)cccc2OCc2ccccc2)nc(C2(F)CCCC2)n1` [Example 5], the herbicidal activity is on record as 85% with Alopercurus myosuroides, 98% in the assay on Amaranthus retroflexus, 100% in the assay with Echinocloa crus-galli and 98% with Setaria faberi.
For the compound `COc1cccc(COc2cc(F)c(F)c(F)c2Nc2nc(N)nc(C(C)(C)F)n2)c1` [Example 98], the herbicidal activity in the assay with Alopercurus myosuroides is listed as 80%; in the assay with Amaranthus retroflexus, 90%; with Echinocloa crus-galli, 100%; with Setaria faberi it was 100%.
In the case of `Nc1nc(Nc2c(F)cccc2OCc2ccccc2F)nc(C2(F)CCCC2)n1` [Example 19], the herbicidal activity came to 70% in the assay with Alopercurus myosuroides, 80% with Amaranthus retroflexus and 85% in the assay on Setaria faberi.
Take `CC(C)(F)c1nc(N)nc(Nc2c(F)cccc2OCc2cccc(F)c2)n1` [Example 11]: the herbicidal activity in the assay with Alopercurus myosuroides, in the assay with Amaranthus retroflexus, in the assay with Echinocloa crus-galli and in the assay with Setaria faberi was 100% in each case.
Turning to `CC(C)(F)c1nc(N)nc(Nc2c(OCc3ccccc3)ccc(F)c2F)n1` [Example 108], the herbicidal activity in the assay with Alopercurus myosuroides, in the assay on Amaranthus retroflexus, in the assay with Echinocloa crus-galli and in the assay with Setaria faberi was 100% in each case.
With `COc1ccc(COc2cccc(F)c2Nc2nc(N)nc(C(C)(C)F)n2)cc1` [Example 20], the herbicidal activity in the assay on Alopercurus myosuroides was determined as 100%; in the assay with Amaranthus retroflexus it was 98%; with Echinocloa crus-galli it was 100%; in the assay on Setaria faberi, 95%.
In the case of `CC(C)(F)c1nc(N)nc(Nc2c(F)cc(F)cc2OCc2ccccc2)n1` [Example 60], the herbicidal activity was 98% in the assay on Alopercurus myosuroides, 100% in the assay on Amaranthus retroflexus, 100% in the assay with Echinocloa crus-galli and 100% in the assay on Setaria faberi.
In turn, `CC(C)(F)c1nc(N)nc(Nc2c(F)cccc2OCc2ccccc2)n1` [Example 257] returned a herbicidal activity in the assay with Abutilon theophrasti of 100%.
As to `Nc1nc(Nc2c(F)ccc(F)c2OCc2ccccc2)nc(C(F)C2CC2)n1` (centres unmarked) [Example 189], the herbicidal activity was 98% in the assay on Alopercurus myosuroides, 100% with Echinocloa crus-galli and 100% in the assay on Setaria faberi.
As for `CC(C)(F)c1nc(N)nc(Nc2c(F)c(F)cc(F)c2OCc2ccccc2C2CC2)n1` [Example 218], the herbicidal activity stood at 95% with Alopercurus myosuroides, 85% in the assay with Echinocloa crus-galli and 100% with Setaria faberi.
Taken in the same sequence, the figures for `CC(C)(F)c1nc(N)nc(Nc2c(F)ccc(F)c2OCc2ccsc2)n1` [Example 174] were 100%, 100% and 100%.
For `CC(F)(F)c1nc(N)nc(Nc2c(F)cccc2OCc2ccccc2)n1` [Example 96], the herbicidal activity is listed as 80% with Alopercurus myosuroides, 100% with Amaranthus retroflexus, 100% with Echinocloa crus-galli and 95% with Setaria faberi.
As to `COCc1ccc(COc2c(F)cc(F)c(F)c2Nc2nc(N)nc(C(C)(C)F)n2)cc1` [Example 220], the values for the herbicidal activity with Alopercurus myosuroides, in the assay on Echinocloa crus-galli and with Setaria faberi were 98%, 95% and 90%, respectively.
Regarding `CC(C)c1ccc(COc2cccc(F)c2Nc2nc(N)nc(C(C)(C)F)n2)cc1` [Example 143], the values for the herbicidal activity in the assay on Alopercurus myosuroides and in the assay with Amaranthus retroflexus were 90% and 100%, respectively.
For the compound `CC(C)(F)c1nc(N)nc(Nc2c(F)cccc2OCc2ccc(F)c(F)c2)n1` [Example 45], the herbicidal activity in the assay with Alopercurus myosuroides was 80%; in the assay with Echinocloa crus-galli it was 80%; in the assay with Setaria faberi, 70%.
Regarding `CCc1ccc(COc2cccc(F)c2Nc2nc(N)nc(C(C)(C)F)n2)cc1` [Example 94], the herbicidal activity with Alopercurus myosuroides is 100%; in the assay with Amaranthus retroflexus, 70%.
`CC(C)(F)c1nc(N)nc(Nc2c(F)cccc2OCc2ccsc2Cl)n1` [Example 107]: the herbicidal activity in the assay on Alopercurus myosuroides was 75%; with Amaranthus retroflexus it was 75%; in the assay on Echinocloa crus-galli it was 100%; with Setaria faberi, 100%.
On to `Nc1nc(Nc2c(F)cccc2OCc2ccccc2)nc(C2(F)CC2)n1` [Example 184], for which the herbicidal activity in the assay with Alopercurus myosuroides is reported as 85%; in the assay on Amaranthus retroflexus, 95%; in the assay with Echinocloa crus-galli, 98%.
On to `Cc1cccc(COc2c(F)cc(F)c(F)c2Nc2nc(N)nc(C(C)(C)F)n2)c1` [Example 182], for which the herbicidal activity in the assay on Alopercurus myosuroides, with Echinocloa crus-galli and in the assay on Setaria faberi was 100% each time.
Regarding `COc1ccc(COc2c(F)cc(F)c(F)c2Nc2nc(N)nc(C(C)(C)F)n2)cc1` [Example 180], the figures for the herbicidal activity with Alopercurus myosuroides, in the assay on Echinocloa crus-galli and in the assay with Setaria faberi were 90%, 100% and 100%, respectively.
With `COc1cccc(COc2c(F)cc(F)c(F)c2Nc2nc(N)nc(C(C)(C)F)n2)c1` [Example 164], the herbicidal activity with Alopercurus myosuroides, with Echinocloa crus-galli and with Setaria faberi was 100% in each case.
For `Cc1ccc(COc2cccc(F)c2Nc2nc(N)nc(C(C)(C)F)n2)cc1` [Example 9], the herbicidal activity is reported as 80% in the assay on Alopercurus myosuroides, 95% in the assay on Amaranthus retroflexus, 100% in the assay on Echinocloa crus-galli and 100% in the assay with Setaria faberi.
For `CC(F)c1nc(N)nc(Nc2c(F)ccc(F)c2OCc2ccccc2)n1` (centres unmarked) [Example 196], the herbicidal activity is recorded as 98% in the assay on Alopercurus myosuroides, 100% in the assay with Echinocloa crus-galli and 100% with Setaria faberi.
As to `CC(C)(F)c1nc(N)nc(Nc2c(F)cccc2OCc2c(F)cccc2Cl)n1` [Example 177], the herbicidal activity in the assay on Alopercurus myosuroides amounted to 85%; in the assay on Echinocloa crus-galli it was 100%; with Setaria faberi, 95%.
As for `COc1cccc(COc2cccc(F)c2Nc2nc(N)nc(C(C)(C)F)n2)c1` [Example 10], the herbicidal activity in the assay on Alopercurus myosuroides, in the assay with Amaranthus retroflexus, in the assay on Echinocloa crus-galli and in the assay with Setaria faberi was 100% throughout.
Take `Cc1cccc(C)c1COc1c(F)cc(F)c(F)c1Nc1nc(N)nc(C(C)F)n1` (centres unmarked) [Example 255]: the herbicidal activity in the assay on Alopercurus myosuroides stood at 90%; in the assay with Echinocloa crus-galli, 95%; in the assay with Setaria faberi it was 90%.
Regarding `COC(C)(C)c1nc(N)nc(Nc2c(F)cccc2OCc2ccccc2)n1` [Example 91], the herbicidal activity in the assay on Alopercurus myosuroides, in the assay on Amaranthus retroflexus, in the assay with Echinocloa crus-galli and in the assay with Setaria faberi was 100% in each case.
As to `COC(C)(C)c1nc(N)nc(Nc2c(F)c(F)cc(F)c2OCc2cccc(C)c2)n1` [Example 227], the herbicidal activity with Alopercurus myosuroides is 90%; with Echinocloa crus-galli, 75%; in the assay on Setaria faberi it was 85%.
As for `CC(C)(F)c1nc(N)nc(Nc2c(F)cccc2OCc2ccccc2)n1` [Example 4], the herbicidal activity with Alopercurus myosuroides, in the assay with Amaranthus retroflexus, with Echinocloa crus-galli and in the assay with Setaria faberi was 100% throughout.
As for `Nc1nc(Nc2c(F)ccc(F)c2OCc2ccccc2)nc(C2(F)CC2)n1` [Example 187], the herbicidal activity in the assay with Alopercurus myosuroides is on record as 85%; in the assay on Echinocloa crus-galli, 100%; in the assay with Setaria faberi, 100%.
As to `COc1cccc(COc2ccc(F)c(F)c2Nc2nc(N)nc(C(C)(C)F)n2)c1` [Example 185], the herbicidal activity in the assay on Alopercurus myosuroides stood at 98%; in the assay with Echinocloa crus-galli, 100%; in the assay with Setaria faberi it was 100%.
As to `Cc1ccccc1COc1c(F)cc(F)c(F)c1Nc1nc(N)nc(C(C)(C)F)n1` [Example 181], the herbicidal activity in the assay with Alopercurus myosuroides is listed as 98%; with Echinocloa crus-galli, 100%; with Setaria faberi, 100%.
On to `CC(C)(F)c1nc(N)nc(Nc2c(OCc3ccccc3)cc(F)c(F)c2F)n1` [Example 69], for which the herbicidal activity with Alopercurus myosuroides, in the assay on Amaranthus retroflexus, with Echinocloa crus-galli and with Setaria faberi was 100% throughout.

The values above are taken from patent publication US11992012B2, “Diaminotriazine compounds” (BASF SE, priority 2018, dated 2024).
